Patent publication US9889147B2 (CELLACT PHARMA GMBH, priority 2010, dated 2018)

How the values were obtained:
topoisomerase II α = assay: Topoisomerase II alpha mRNA expression in U937 cells (PCR); type: cell-based; conditions: 24 h
Procedure: (§1) One of the controls involved the treatment of the cells with 0.05% (1 μl) DMSO. Untreated cells are also shown as a control.
(§2) After an incubation time of 24 h, expression was analysed by determining mRNA levels by real-time PCR. In the respective lanes of FIG. 2, the bands for topoisomerase II α (322 bp), topoisomerase II β (304 bp) and the GAPDH control (358 bp) are shown. In the H2O control lane, showing the results of the H2O control sample, no bands were observed.

topoisomerase II β = assay: Topoisomerase II beta mRNA expression in U937 cells (PCR); type: cell-based; conditions: 10^4 mol/l, 24 h
Procedure: as §1, §2

[1] = molecular target: T1, MDR-1 gene product (P-glycoprotein) (Homo sapiens, UniProt P08183); assay: Functional MDR-1 assay with JC-1 in Kelly cells (flow cytometry); type: cell-based
T1 construct: endogenous in cells; host or cells: Kelly
T1 sequence (P08183 whole entry): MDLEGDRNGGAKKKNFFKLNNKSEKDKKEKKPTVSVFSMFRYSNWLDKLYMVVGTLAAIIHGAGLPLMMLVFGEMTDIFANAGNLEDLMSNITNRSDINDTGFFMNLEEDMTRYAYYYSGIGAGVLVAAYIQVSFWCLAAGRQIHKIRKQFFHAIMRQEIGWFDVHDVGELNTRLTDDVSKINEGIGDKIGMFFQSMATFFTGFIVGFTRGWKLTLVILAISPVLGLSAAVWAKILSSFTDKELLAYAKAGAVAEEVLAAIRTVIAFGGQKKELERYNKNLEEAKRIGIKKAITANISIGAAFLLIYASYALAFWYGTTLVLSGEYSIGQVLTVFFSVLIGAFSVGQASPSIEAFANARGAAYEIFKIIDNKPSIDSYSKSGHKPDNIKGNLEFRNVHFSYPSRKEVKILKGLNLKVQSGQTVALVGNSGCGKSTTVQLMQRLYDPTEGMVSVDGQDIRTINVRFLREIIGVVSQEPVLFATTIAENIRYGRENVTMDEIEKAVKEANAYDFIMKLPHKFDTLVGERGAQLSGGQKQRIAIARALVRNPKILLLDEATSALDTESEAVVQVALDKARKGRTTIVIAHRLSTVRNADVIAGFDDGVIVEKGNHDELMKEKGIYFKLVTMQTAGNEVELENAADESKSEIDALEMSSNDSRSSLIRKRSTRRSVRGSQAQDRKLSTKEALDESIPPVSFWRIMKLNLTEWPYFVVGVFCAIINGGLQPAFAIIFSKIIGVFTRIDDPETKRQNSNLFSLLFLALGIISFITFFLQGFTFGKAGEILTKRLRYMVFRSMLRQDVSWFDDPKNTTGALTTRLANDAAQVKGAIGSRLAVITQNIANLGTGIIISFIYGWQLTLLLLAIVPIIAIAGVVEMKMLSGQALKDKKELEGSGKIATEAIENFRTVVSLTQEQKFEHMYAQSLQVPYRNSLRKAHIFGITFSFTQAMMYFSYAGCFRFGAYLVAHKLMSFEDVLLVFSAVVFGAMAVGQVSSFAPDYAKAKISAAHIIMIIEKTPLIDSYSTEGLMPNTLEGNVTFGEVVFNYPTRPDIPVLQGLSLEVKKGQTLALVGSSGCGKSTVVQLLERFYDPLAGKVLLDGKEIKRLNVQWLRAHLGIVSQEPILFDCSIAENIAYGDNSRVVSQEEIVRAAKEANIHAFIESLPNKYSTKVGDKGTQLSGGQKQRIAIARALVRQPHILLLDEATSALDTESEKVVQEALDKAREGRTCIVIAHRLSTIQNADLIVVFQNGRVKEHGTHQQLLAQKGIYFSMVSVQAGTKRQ
Procedure: By means of an assay using JC-1, MDR-1 activity was assessed in Kelly cells, which express MDR-1. JC-1 is a cationic staining dye which is taken up by living cells. JC-1 is recognized by the MDR-1 gene product (P-glycoprotein) and pumped to the outside of the cell (substrate efflux). Thus, MDR-1 activity is indicated by a reduction in intracellular JC-1 signal.
Kelly cells grown in RPMI medium were washed and resuspended at a concentration of 10^6 cells/ml in solutions containing JC-1 in a final concentration of 50 nmol/l. […] The control contained 1 μl (0.05%) DMSO. Cells were analysed for JC-1 staining in a FACScanto II flow cytometer.

U937 cells = assay: Cell cycle analysis in multidrug-resistant U937 cells (propidium iodide); type: cell-based; conditions: 18 h, 24 h and 48 h, CAP7.1, etoposide 10^−4 mol/l
Procedure: The cells were incubated for 48 h. After 18 h, 24 h and 48 h of incubation, respectively, cell cycle analysis was performed as follows:
Cells were washed once with CellWash, fixed with fridge-cold 70% Ethanol for 30 min at 4° C. and washed three times. RNA was digested with RNAse A (100 μg/ml in PBS) for 10 min at room temperature. Cells were washed once with CellWash and stained with propidium iodide (50 μg/ml in PBS) for 5 min at room temperature in the dark. Cells were analyzed immediately by flow cytometry using a FACScanto II apparatus.

P-glycoprotein = P-glycoprotein (Homo sapiens, UniProt P08183); assay: P-glycoprotein substrate behaviour; type: cell-based
Chain of P-glycoprotein (P08183 whole entry): as above

Animal toxicity profile = conditions: animals

Question: Which “expression of topoisomerase II α (mRNA)” value (topoisomerase II α) does the source give for `COc1cc([C@@H]2c3cc4c(cc3[C@@H](O[C@@H]3O[C@@H]5CO[C@@H](C)O[C@H]5[C@H](O)[C@H]3O)[C@H]3COC(=O)[C@H]23)OCO4)cc(OC)c1O` [etoposide, reference compound] here?
Answer: Its value is “significant decrease”.

Question: What about the “expression of topoisomerase II β (mRNA)” value (topoisomerase II β) of the same molecule?
Answer: The value was “significant decrease”.

Question: What about the “intracellular JC-1 signal versus DMSO control (MDR-1-mediated substrate efflux)” value ([1]; Kelly cells, 10^−4 mol/l, 15 min) of the same molecule?
Answer: Its value is “identical”.

Question: What about the “effect on the MDR-1 gene product P-glycoprotein” value ([1]; general statement) of the same molecule?
Answer: Its value is “ineffective on P-glycoprotein”.

Question: And the “fraction of cells in G2 phase with increasing incubation times” value (U937 cells)?
Answer: The value was “reduction”.

Question: And the “substrate for P-glycoprotein / efflux from cells” value (P-glycoprotein)?
Answer: Its value is “pumped out of the cells”.

Question: And the weight loss (Animal toxicity profile)?
Answer: The weight loss was “significant weight loss”.
